In general, IC50 refers to the point on the concentration scale where inhibition reaches its midpoint.

Common to all, as to assay type: biochemical
One assay addresses PHF8 (KDM7) (Homo sapiens, UniProt Q9UPP1). The assay is described as follows: Histone lysine demethylase AlphaLISA assay, PHF8. The settings on record: in vitro enzyme, read-out: PHF8 IC50 (HDME Inhibition).
The target in a further assay is T1, KDM4C (JMJD2C) (Homo sapiens, UniProt Q9H3R0).
T1 construct: 1-349; host or cells: E. coli
T1 sequence (Q9H3R0 1-349): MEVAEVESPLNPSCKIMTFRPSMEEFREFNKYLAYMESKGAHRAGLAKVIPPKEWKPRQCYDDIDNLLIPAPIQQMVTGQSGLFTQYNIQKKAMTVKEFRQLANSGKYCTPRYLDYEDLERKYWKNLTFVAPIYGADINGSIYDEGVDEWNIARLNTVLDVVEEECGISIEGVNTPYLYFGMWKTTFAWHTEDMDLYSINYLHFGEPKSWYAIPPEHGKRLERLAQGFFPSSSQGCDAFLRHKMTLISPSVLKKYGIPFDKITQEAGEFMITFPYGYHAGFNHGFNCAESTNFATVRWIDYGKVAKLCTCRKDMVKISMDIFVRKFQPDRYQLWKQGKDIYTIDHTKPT
The assay is described as follows: Histone lysine demethylase AlphaLISA assay, KDM4C. The settings on record: in vitro enzyme, read-out: KDM4C IC50 (HDME Inhibition). As to the method: Histone lysine demethylase AlphaLISA assays are performed to determine IC50 values. […] Assays are performed analogously to the protocol described by PerkinElmer (Roy et al. PerkinElmer Technical Note: AlphaLISA #12, April 2011).
Assays are performed analogously to the protocol described by PerkinElmer (Roy et al. PerkinElmer Technical Note: AlphaLISA #12, April 2011).
Enzymes (final assay concentration 0.1-2.5 nM) are dissolved in enzyme buffer and incubated for 10 min before 5 μL is added to 5 μL 3% DMSO solutions of compounds in enzyme buffer, incubated for another 10 minutes, before 5 μL substrate solution is added and the reaction mixture is incubated at room temperature. 10 μL acceptor beads, suspended Epigenetic Buffer (Perkin Elmer AL008) from stock, are added and the suspension is incubated in the dark at room temperature, before 10 μL suspension of streptavidin donor beads (Perkin Elmer 6760002) in Epigenetic Buffer is added. After incubation at room temperature in the dark the plates are read.
Substrate solution: Substrate (final assay concentration 50-200 nM), 50 mM Hepes (pH 7.4-8.0), 0.003% Tween-20, 0.1% BS, 25 μM L-Asc, 10 μM α-KG. Enzyme Buffer: 50 mM Hepes (pH 7.4-8.0), 0.003% Tween-20, 0.1% BSA; 5 μM (NH4)2Fe(SO4)2
For orientation: In Alpha technology, singlet oxygen from a donor bead excites a nearby acceptor bead.

A further assay addresses T2, KDM2B (FBXL10) (Homo sapiens, UniProt Q8NHM5).
T2 construct: 1-650; purchased BPS Bioscience, US; host or cells: Bac (baculovirus/insect cells)
T2 sequence (Q8NHM5 1-650): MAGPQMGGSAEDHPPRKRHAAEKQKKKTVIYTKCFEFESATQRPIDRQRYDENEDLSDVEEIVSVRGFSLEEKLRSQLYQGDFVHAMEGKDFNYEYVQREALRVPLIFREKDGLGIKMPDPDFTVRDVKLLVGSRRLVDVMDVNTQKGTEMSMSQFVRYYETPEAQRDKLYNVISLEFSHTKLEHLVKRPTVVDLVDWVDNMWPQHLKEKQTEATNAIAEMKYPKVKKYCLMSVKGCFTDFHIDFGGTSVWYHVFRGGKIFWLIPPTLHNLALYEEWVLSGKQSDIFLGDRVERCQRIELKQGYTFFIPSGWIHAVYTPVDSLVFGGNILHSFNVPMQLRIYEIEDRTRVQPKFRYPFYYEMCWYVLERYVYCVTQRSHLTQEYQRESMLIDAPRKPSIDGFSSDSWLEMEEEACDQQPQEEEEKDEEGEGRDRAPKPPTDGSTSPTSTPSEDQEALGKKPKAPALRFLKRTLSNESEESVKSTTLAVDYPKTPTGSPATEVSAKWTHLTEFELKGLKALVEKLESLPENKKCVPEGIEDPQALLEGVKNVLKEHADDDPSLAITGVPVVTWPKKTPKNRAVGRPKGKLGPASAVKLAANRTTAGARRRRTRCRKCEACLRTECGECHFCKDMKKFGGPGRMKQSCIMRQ
The assay is described as follows: Histone lysine demethylase AlphaLISA assay, KDM2B. The settings on record: in vitro enzyme, read-out: KDM2B IC50 (HDME Inhibition).

The target of another assay is T3, KDM6A (UTX) (Homo sapiens, UniProt O15550).
T3 construct: 919-1401; host or cells: E. coli
T3 sequence (O15550 919-1401): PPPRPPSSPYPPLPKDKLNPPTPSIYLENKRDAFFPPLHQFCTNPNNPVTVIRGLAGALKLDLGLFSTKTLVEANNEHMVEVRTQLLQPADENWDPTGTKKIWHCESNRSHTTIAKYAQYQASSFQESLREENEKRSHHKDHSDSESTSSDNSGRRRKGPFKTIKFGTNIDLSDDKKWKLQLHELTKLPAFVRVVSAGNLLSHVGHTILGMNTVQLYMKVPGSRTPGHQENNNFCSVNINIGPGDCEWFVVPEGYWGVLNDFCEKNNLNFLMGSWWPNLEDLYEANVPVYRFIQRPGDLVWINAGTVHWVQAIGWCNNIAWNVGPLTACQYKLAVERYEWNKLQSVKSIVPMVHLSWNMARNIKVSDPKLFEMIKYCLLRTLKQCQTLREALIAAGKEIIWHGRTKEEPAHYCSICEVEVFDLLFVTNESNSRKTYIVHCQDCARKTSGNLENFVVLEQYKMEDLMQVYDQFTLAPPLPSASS
The assay is described as follows: Histone lysine demethylase AlphaLISA assay, KDM6A. The settings on record: in vitro enzyme, read-out: KDM6A IC50 (HDME Inhibition).

A further assay deals with T4, KDM5B (PLU-1) (Homo sapiens, UniProt Q9UGL1).
T4 construct: 1-809; host or cells: E. coli
T4 sequence (Q9UGL1 1-809): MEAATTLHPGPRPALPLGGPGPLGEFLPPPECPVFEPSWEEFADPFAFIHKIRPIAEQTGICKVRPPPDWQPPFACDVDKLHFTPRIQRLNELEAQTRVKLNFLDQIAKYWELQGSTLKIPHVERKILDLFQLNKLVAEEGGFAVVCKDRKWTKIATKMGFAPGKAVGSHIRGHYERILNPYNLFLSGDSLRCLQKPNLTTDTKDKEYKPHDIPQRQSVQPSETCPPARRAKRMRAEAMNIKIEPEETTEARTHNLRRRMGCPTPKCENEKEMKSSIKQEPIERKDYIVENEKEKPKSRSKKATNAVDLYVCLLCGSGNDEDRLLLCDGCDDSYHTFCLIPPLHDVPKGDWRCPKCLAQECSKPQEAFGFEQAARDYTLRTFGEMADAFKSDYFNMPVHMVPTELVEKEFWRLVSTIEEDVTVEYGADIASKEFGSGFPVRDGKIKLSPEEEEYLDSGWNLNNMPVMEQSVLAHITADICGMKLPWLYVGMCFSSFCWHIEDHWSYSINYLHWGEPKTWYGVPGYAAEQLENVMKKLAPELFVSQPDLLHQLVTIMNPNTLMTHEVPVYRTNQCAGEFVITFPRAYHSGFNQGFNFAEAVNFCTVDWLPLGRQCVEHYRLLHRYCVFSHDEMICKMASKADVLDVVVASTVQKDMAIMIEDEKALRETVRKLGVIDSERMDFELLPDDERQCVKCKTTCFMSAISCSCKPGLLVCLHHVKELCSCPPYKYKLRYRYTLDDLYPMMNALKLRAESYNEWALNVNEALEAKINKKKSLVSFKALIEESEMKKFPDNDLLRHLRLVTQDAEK
The assay is described as follows: Histone lysine demethylase AlphaLISA assay, KDM5B. The settings on record: in vitro enzyme, read-out: KDM5B IC50 (HDME Inhibition).

PHF8 (KDM7), sequence (Q9UPP1 whole entry): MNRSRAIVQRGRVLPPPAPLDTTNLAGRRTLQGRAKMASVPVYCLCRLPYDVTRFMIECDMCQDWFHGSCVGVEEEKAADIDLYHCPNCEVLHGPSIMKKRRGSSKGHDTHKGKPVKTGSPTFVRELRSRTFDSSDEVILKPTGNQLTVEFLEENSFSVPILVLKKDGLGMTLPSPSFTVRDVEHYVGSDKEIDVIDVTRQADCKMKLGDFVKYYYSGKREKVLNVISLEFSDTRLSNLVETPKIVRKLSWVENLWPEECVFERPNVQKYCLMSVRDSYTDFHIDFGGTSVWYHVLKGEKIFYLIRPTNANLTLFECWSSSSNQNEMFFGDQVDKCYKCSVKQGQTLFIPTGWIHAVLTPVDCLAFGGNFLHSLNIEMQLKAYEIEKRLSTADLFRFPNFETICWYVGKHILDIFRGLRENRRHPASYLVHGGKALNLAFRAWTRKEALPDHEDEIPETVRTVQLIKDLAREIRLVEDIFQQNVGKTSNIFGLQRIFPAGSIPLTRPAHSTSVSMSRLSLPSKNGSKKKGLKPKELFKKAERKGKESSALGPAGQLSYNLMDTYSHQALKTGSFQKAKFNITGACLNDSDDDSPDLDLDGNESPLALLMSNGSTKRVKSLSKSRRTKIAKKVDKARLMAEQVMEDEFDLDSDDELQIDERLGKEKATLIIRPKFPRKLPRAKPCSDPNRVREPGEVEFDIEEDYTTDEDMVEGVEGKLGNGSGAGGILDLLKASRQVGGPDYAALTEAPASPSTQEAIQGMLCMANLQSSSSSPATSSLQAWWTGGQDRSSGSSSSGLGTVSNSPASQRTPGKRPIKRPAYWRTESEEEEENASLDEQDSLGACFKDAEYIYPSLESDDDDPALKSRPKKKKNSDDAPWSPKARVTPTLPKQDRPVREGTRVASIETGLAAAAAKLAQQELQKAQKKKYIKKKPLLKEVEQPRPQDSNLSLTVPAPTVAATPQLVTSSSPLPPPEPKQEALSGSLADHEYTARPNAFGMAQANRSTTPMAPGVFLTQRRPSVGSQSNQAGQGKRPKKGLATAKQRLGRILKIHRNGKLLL

`CCNC(=O)C[C@H]1CCN(Cc2cc(C(=O)O)ccn2)C1` [Compound 73, 2-{[(3R)-3-[(ethylcarbamoyl)methyl]pyrrolidin-1-yl]methyl}pyridine-4-carboxylic acid]: the IC50 on PHF8 (KDM7) was 250 to 2500 nM; at KDM4C (JMJD2C), more than 2500 nM; at KDM2B (FBXL10), 250 to 2500 nM.

Consider `CCN(CC)C(=O)CCN(CCC(=O)N(CC)CC)Cc1cc(C(=O)O)ccn1` [Compound 32, 2-({bis[2-(diethylcarbamoyl)ethyl]amino}methyl)pyri-dine-4-carboxylic acid], for which the IC50 on PHF8 (KDM7) is more than 2500 nM; on KDM4C (JMJD2C), more than 2500 nM; at KDM2B (FBXL10), 250 to 2500 nM.

On to `COCC(=O)Nc1ccccc1CNC(=O)[C@H](CC(C)C)NCc1cc(C(=O)O)ccn1` [Compound 12, 2-({[(1S)-1-({[2-(2-methoxyacetamido)phenyl]methyl}carbamoyl)-3-methylbutyl]amino}methyl)pyridine-4-carboxylic acid], for which the IC50 at PHF8 (KDM7) is 250 to 2500 nM; on KDM4C (JMJD2C), more than 2500 nM; on KDM2B (FBXL10), 250 to 2500 nM.

On to `CCN1CC[C@H](CNCc2cc(C(=O)O)ccn2)C1=O` [Compound 106, 2-[({[(3R)-1-ethyl-2-oxopyrrolidin-3-yl]methyl}amino)methyl]pyridine-4-carboxylic acid], for which the IC50 was more than 2500 nM at KDM6A (UTX), less than 250 nM on KDM4C (JMJD2C) and less than 250 nM on KDM2B (FBXL10).

For `O=C(O)c1ccnc(CNC2CCc3cccnc32)c1` (stereo not drawn) [Compound 98, 2-[({5H,6H,7H-cyclopenta[b]pyridin-7-yl}amino)methyl]pyri-dine-4-carboxylic acid], the IC50 was 250 to 2500 nM at KDM4C (JMJD2C), less than 250 nM at KDM5B (PLU-1) and 250 to 2500 nM on KDM2B (FBXL10).

`O=C(O)c1ccnc(CNCc2cn(Cc3ccc(F)cc3)c3ccc(F)cc23)c1` [Compound 86, 2-{[({5-fluoro-1-[(4-fluorophenyl)methyl]-1H-indol-3-yl}methyl)amino]methyl}pyridine-4-carboxylic acid]: the half-maximal inhibitory concentration (IC50) on KDM6A (UTX) is more than 2500 nM; at KDM4C (JMJD2C), more than 2500 nM; on KDM2B (FBXL10), 250 to 2500 nM.

On to `CC(C)c1ccnc2c1CCC2NCc1cc(C(=O)O)ccn1` (stereo not drawn) [Compound 99, 2-({[4-(propan-2-yl)-5H,6H,7H-cyclopenta[b]pyridin-7-yl]amino}methyl)pyri-dine-4-carboxylic acid], for which the IC50 at KDM6A (UTX) is more than 2500 nM; at KDM4C (JMJD2C) it was 250 to 2500 nM; at KDM2B (FBXL10) it was less than 250 nM.

For `CC(NCc1nccs1)c1cc(C(=O)O)ccn1` (stereo not drawn) [Compound 41, 2-{1-[(1,3-thiazol-2-ylmethyl)amino]ethyl} pyridine-4-carboxylic acid], the IC50 on KDM4C (JMJD2C), on KDM5B (PLU-1) and on KDM2B (FBXL10) was 250 to 2500 nM throughout.

For the compound `CCN(CC)C(=O)CC(C)NCc1cc(C(=O)O)ccn1` (stereo not drawn) [Compound 43, 2-({[1-(diethylcarbamoyl)propan-2-yl]amino}methyl)pyri-dine-4-carboxylic acid], the IC50 at PHF8 (KDM7) was 250 to 2500 nM; on KDM4C (JMJD2C) it was more than 2500 nM; on KDM2B (FBXL10) it was 250 to 2500 nM.

As for `CCN(CC)C(=O)CCN(CC(N)=O)C(C)c1cc(C(=O)O)ccn1` (stereo not drawn) [Compound 31, 2-{1-[(carbamoylmethyl)[2-(diethylcarbamoyl)ethyl]amino]ethyl}pyridine-4-carboxylic acid], the IC50 on PHF8 (KDM7), on KDM4C (JMJD2C) and on KDM2B (FBXL10) was more than 2500 nM throughout.

Consider `CC(NCC(=O)N1CCCCC1)c1cc(C(=O)O)ccn1` (stereo not drawn) [Compound 48, 2-(1-{[2-oxo-2-(piperidin-1-yl)ethyl]amino}ethyl) pyridine-4-carboxylic acid], for which the IC50 on KDM4C (JMJD2C), on KDM5B (PLU-1) and at KDM2B (FBXL10) was 250 to 2500 nM each time.

Regarding `C=CCc1cnc2c(c1)CCC2NCc1cc(C(=O)O)ccn1` (stereo not drawn) [Compound 95, 2-({[3-(prop-2-en-1-yl)-5H,6H,7H-cyclopenta[b]pyridin-7-yl]amino}methyl)pyri-dine-4-carboxylic acid], the results for the 50% inhibitory concentration (IC50) on PHF8 (KDM7), at KDM4C (JMJD2C) and at KDM2B (FBXL10) were less than 250 nM, 250 to 2500 nM and less than 250 nM, respectively.
